Test results: ChEMBL document CHEMBL4177563, “The medicinal chemistry of Chikungunya virus” (Bioorg Med Chem, 2017)
pEC50, pIC50, pKi: −log10 of the molar value. Values after ≈ are worked out from the molar mass of the structure shown.

What was measured:
[1] = Cytotoxicity against African green monkey Vero cells assessed as reduction in cell viability measured on day 6 to 7 post infection by MTS dye-based microscopic analysis; conditions: chlorocebus sabaeus
Chikungunya virus [2] = experiment: Antiviral activity against Chikungunya virus infected in African green monkey Vero cells assessed as inhibition of virus-induced cytopathogenic effect measured on day 6 to 7 post infection by MTS dye-based microscopic analysis; format: functional, organism-based; conditions: 144 h
Chikungunya virus [3] = experiment: Antiviral activity against Chikungunya virus LR2006 OPY1 infected in BHK cells measured at 14 hrs post infection by luciferase reporter gene assay; format: functional, organism-based
[4] = Selectivity index, ratio of CC50 for BHK cells to IC50 for Chikungunya virus LR2006 OPY1; format: toxicity; conditions: hamster, read-out: Ratio CC50/IC50
[5] = Cytotoxicity against BHK cells assessed as reduction in cell viability after 48 hrs in presence of ATP by Celltiter-Glo luminescent assay; format: cell-based, Mesocricetus auratus; conditions: hamster
Chikungunya virus [6] = experiment: Antiviral activity against Chikungunya virus infected in African green monkey Vero cells after 72 hrs by MTT dye-based assay; format: functional, organism-based
[7] = Binding affinity to Chikungunya virus […]
[8] = Selectivity index, ratio of CC50 for African green monkey Vero cells to IC50 for Chikungunya virus MY/065/08/FN295485; format: toxicity; conditions: read-out: Ratio IC50
Chikungunya virus [9] = experiment: Antiviral activity against Chikungunya virus MY/065/08/FN295485 infected in African green monkey Vero cells assessed as reduction in virus yield after 48 hrs by titration assay; format: functional, organism-based; conditions: MY/065/08/FN295485, Vero
Chikungunya virus [10] = experiment: Antiviral activity against Chikungunya virus infected in African green monkey Vero cells; format: functional, organism-based

Compound: C=C(C)[C@@]1(Oc2ccccc2)[C@@H]2OC3(c4ccccc4)O[C@H]1[C@@H](C)[C@]1(O3)C3=CC(=C(Cl)Cl)[C@H](c4ccccc4)[C@@]3(O)C[C@@]3(C)O[C@H]3[C@@H]21
- CC50 [1]: 23.1 µM
- pEC50 (Chikungunya virus [2]): 5.52

Compound: CCSc1ccc2c(c1)N(CCCN1CCN(C)CC1)c1ccccc1S2 [THIETHYLPERAZINE]
- pIC50 (Chikungunya virus [3]): 4.82
- selectivity ratio [4]: 5.5
- CC50 at 48 h [5]: 83.1 µM

Compound: CC1CCCCCCCC(C)C(=O)O[C@H]2/C(=C/Cl)C=C3[C@]45OC6(c7ccccc7)O[C@H]([C@@H]4[C@@H]4O[C@]4(CO)C[C@@]32O)[C@@](O)([C@@H](O6)[C@H]5C)C(C)(O)C1 (stereo partly specified)
- CC50 [1]: 5.3 µM
- pEC50 (Chikungunya virus [2]): 5.60

Compound: O=c1cc(-c2ccccc2)oc2cc(O)cc(O)c12 [CHRYSIN]
- pIC50 (Chikungunya virus [6]): 3.90 to 4.65

Compound: O=C1C[C@@H](c2ccc(O)cc2)Oc2cc(O)cc(O)c21 [NARINGENIN]
- pKi [7]: 6.16

Compound: CN(C)CCCN1c2ccccc2Sc2ccc(Cl)cc21 [CHLORPROMAZINE]
- pIC50 (Chikungunya virus [3]): 4.80
- selectivity ratio [4]: 4.5
- CC50 at 48 h [5]: 67.3 µM

Compound: O=c1c(O)c(-c2ccc(O)c(O)c2)oc2cc(O)ccc12 [FISETIN]
- selectivity ratio [8]: 23
- pIC50 (Chikungunya virus [9]): 4.53

Compound: C=C[C@H]1CN2CC[C@H]1C[C@H]2[C@H](O)c1ccnc2ccc(OC)cc12 [QUININE]
- IC50 (Chikungunya virus [10]): 0.1 µg/mL (≈ 0.308 µM)

Compound: O=C(O)[C@H]1O[C@@H](Oc2cc3oc(-c4ccccc4)cc(=O)c3c(O)c2O)[C@H](O)[C@@H](O)[C@@H]1O [BAICALIN]
- selectivity ratio [8]: 188
- pIC50 (Chikungunya virus [9]): 5.16
- pKi [7]: 7.19

Compound: C=C(C)[C@@]1(Oc2ccccc2)[C@@H]2OC3(c4ccccc4)O[C@H]1[C@@H](C)[C@]1(O3)C3=CC(=C(Cl)Cl)C[C@@]3(O)C[C@@]3(Cc4ccccc4)O[C@H]3[C@@H]21
- CC50 [1]: 93 µM
- pEC50 (Chikungunya virus [2]): 5.59

Compound: CN1CCC(CN2c3ccccc3Sc3ccccc32)C1 (stereo unspecified) [METHDILAZINE]
- pIC50 (Chikungunya virus [3]): 4.95
- selectivity ratio [4]: 5.6
- CC50 at 48 h [5]: 63.8 µM

Compound: OCCN1CCN(CCCN2c3ccccc3Sc3ccc(Cl)cc32)CC1 [PERPHENAZINE]
- pIC50 (Chikungunya virus [3]): 4.60
- selectivity ratio [4]: 6.2
- CC50 at 48 h [5]: 155 µM

Compound: CC1CCCCCCCC(C)C(=O)O[C@H]2/C(=C/Cl)C=C3[C@]45OC6(c7ccccc7)O[C@H]([C@@H]4[C@@H]4O[C@]4(CO)C[C@@]32O)[C@@](O)([C@@H](O6)[C@H]5C)C(O)(COC(=O)c2ccccc2)C1 (stereo partly specified)
- CC50 [1]: 10.5 µM
- pEC50 (Chikungunya virus [2]): 5.41

Compound: O=c1cc(-c2ccc(O)cc2)oc2cc(O)cc(O)c12 [APIGENIN]
- pIC50 (Chikungunya virus [6]): 3.90 to 4.65

Compound: COc1cc(C2Oc3cc([C@H]4Oc5cc(O)cc(O)c5C(=O)[C@@H]4O)ccc3OC2CO)ccc1O (stereo partly specified) [SILIBININ]
- pIC50 (Chikungunya virus [6]): 3.90 to 4.65

Compound: C=C(C)[C@@]1(O)[C@@H]2OC3(c4ccccc4)O[C@H]1[C@@H](C)[C@]1(O3)C3=CC(=C(Cl)Cl)[C@H](OC(=O)c4ccccc4)[C@@]3(O)[C@H](OC(C)=O)[C@@]3(COC(C)=O)O[C@H]3[C@@H]21
- CC50 [1]: 35 µM
- pEC50 (Chikungunya virus [2]): 5.82

Compound: CCN(CC)C(C)CN1c2ccccc2Sc2ccccc21 (stereo unspecified) [ETHOPROPAZINE]
- pIC50 (Chikungunya virus [3]): 4.80
- selectivity ratio [4]: 10.4
- CC50 at 48 h [5]: 167 µM

Compound: CC1CCCCCCCC(C)C(=O)O[C@H]2/C(=C/Cl)C=C3[C@]45OC6(c7ccccc7)O[C@H]([C@@H]4[C@@H]4O[C@]4(CO)C[C@@]32O)[C@@](O)([C@@H](O6)[C@H]5C)C(O)(COC(=O)c2ccccc2O)C1 (stereo partly specified)
- CC50 [1]: 4.6 µM
- pEC50 (Chikungunya virus [2]): 5.72

Compound: O=c1c(O)c(-c2ccc(O)c(O)c2)oc2cc(O)c(O)c(O)c12 [QUERCETAGETIN]
- selectivity ratio [8]: 16.3
- pIC50 (Chikungunya virus [9]): 1.60
- pKi [7]: 6.31

Compound: O=c1cc(-c2ccc(O)c(O)c2)oc2cc(O)cc(O)c12 [LUTEOLIN]
- pIC50 (Chikungunya virus [6]): 3.90 to 4.65
